According to patent publication US20250064844A1 (Emory University, priority 2020, published 2025):
Where two headings read alike, the source gives them in different places.

What was measured:
HepG2 cells = test: Cell uptake and metabolism of EIDD-2801 in HepG2 cells; conditions: intracellular analyte; HepG2 cells incubated with 20 μM EIDD-2801, 1-24 hours
clinical = conditions: human, in vivo; for AUC(0-inf): AUCinf
SARS [1] = test: organism not typed; type: cell-based; conditions: Vero C1008, SARS; Vero E6
[2] = human, in vivo
[3] = cynomolgus monkey, in vivo, po
Huh-7 cells = test: Cell uptake and metabolism of EIDD-2801 in Huh-7 cells; conditions: intracellular analyte; Huh-7 cells incubated with 20 μM EIDD-2801, 1-24 hours
Vero cells = test: Cell uptake and metabolism of EIDD-2801 in Vero cells; conditions: intracellular analyte; Vero cells incubated with 20 μM EIDD-2801, 1-24 hours
SARS-CoV2 = test: microbe, parasite or virus in culture; type: cell-based; conditions: Severe acute respiratory syndrome coronavirus 2, Vero
HCoV = test: organism not typed; type: cell-based; conditions: Vero C1008
SARS [4] = test: organism not typed; type: cell-based; conditions: Vero C1008
CEM cells = test: Cell uptake and metabolism of EIDD-2801 in CEM cells; conditions: intracellular analyte; CEM cells incubated with EIDD-2801 (40 μM solution prepared), 1-24 hours

SMILES: O=c1nc(NO)ccn1C1OC(CO)C(O)C1O (stereo not shown) [EIDD-1931, 1-(3,4-dihydroxy-5-(hydroxymethyl)tetrahydrofuran-2-yl)-4-(hydroxyamino)pyrimidin-2-one]
- AUC0−>t (HepG2 cells): 249.8 pmol · h/M cells
- Cmax (HepG2 cells): 13.4 pmol/M Cells
- AUC(0-inf) (clinical; 50 mg): 461 ng·h/mL
- AUC(0-t) (clinical; 50 mg, AUClast): 444 ng·h/mL
- AUC(0-t) (clinical; 50 mg, AUCt): 461 ng·h/mL
- Cmax (clinical; 50 mg): 223 ng/mL
- half-life (clinical; 50 mg, t1/2): 0.937 h
- Tmax (clinical; 50 mg, tmax): 1 h
- AUC(0-inf) (clinical; 100 mg): 855 ng·h/mL
- AUC(0-t) (clinical; 100 mg, AUClast): 835 ng·h/mL
- AUC(0-t) (clinical; 100 mg, AUCt): 854 ng·h/mL
- Cmax (clinical; 100 mg): 395 ng/mL
- half-life (clinical; 100 mg, t1/2): 0.918 h
- Tmax (clinical; 100 mg, tmax): 1.25 h
- AUC(0-inf) (clinical; 200 mg): 1660 ng·h/mL
- AUC(0-t) (clinical; 200 mg, AUClast): 1720 ng·h/mL
- AUC(0-t) (clinical; 200 mg, AUCt): 1730 ng·h/mL
- Cmax (clinical; 200 mg): 742 ng/mL
- half-life (clinical; 200 mg, t1/2): 1.09 h
- Tmax (clinical; 200 mg, tmax): 1.5 h
- AUC(0-inf) (clinical; 300 mg): 3090 ng·h/mL
- AUC(0-t) (clinical; 300 mg, AUClast): 2980 ng·h/mL
- AUC(0-t) (clinical; 300 mg, AUCt): 2960 ng·h/mL
- Cmax (clinical; 300 mg): 1100 ng/mL
- half-life (clinical; 300 mg, t1/2): 1.71 h
- Tmax (clinical; 300 mg, tmax): 1.5 h
- AUC(0-inf) (clinical; 400 mg): 3800 ng·h/mL
- AUC(0-t) (clinical; 400 mg, AUClast): 3730 ng·h/mL
- AUC(0-t) (clinical; 400 mg, AUCt): 3710 ng·h/mL
- Cmax (clinical; 400 mg): 1470 ng/mL
- half-life (clinical; 400 mg, t1/2): 1.2 h
- Tmax (clinical; 400 mg, tmax): 1.5 h
- AUC(0-inf) (clinical; 600 mg): 6680 ng·h/mL
- AUC(0-t) (clinical; 600 mg, AUClast): 7250 ng·h/mL
- AUC(0-t) (clinical; 600 mg, AUCt): 7110 ng·h/mL
- Cmax (clinical; 600 mg): 2240 ng/mL
- half-life (clinical; 600 mg, t1/2): 1.16 h
- Tmax (clinical; 600 mg, tmax): 1.75 h
- AUC(0-inf) (clinical; 800 mg): 8200 ng·h/mL
- AUC(0-t) (clinical; 800 mg, AUClast): 8450 ng·h/mL
- AUC(0-t) (clinical; 800 mg, AUCt): 8330 ng·h/mL
- Cmax (clinical; 800 mg): 2970 ng/mL
- Tmax (clinical; 800 mg, tmax): 1.5 h
- half-life (clinical; mean t1/2): 0.918 to 1.18 h
- Tmax (clinical; median tmax): 1 to 1.75 h
- AUC(0-inf) (clinical; po, 50 mg): 432 ng·h/mL
- AUC(0-t) (clinical; po, 50 mg, AUClast): 415 ng·h/mL
- Cmax (clinical; po, 50 mg): 223 ng/mL
- half-life (clinical; po, 50 mg, t1/2): 0.945 h
- Tmax (clinical; po, 50 mg, tmax (median)): 1 h
- AUC(0-inf) (clinical; po, 100 mg): 932 ng·h/mL
- AUC(0-t) (clinical; po, 100 mg, AUClast): 917 ng·h/mL
- Cmax (clinical; po, 100 mg): 454 ng/mL
- half-life (clinical; po, 100 mg, t1/2): 0.907 h
- Tmax (clinical; po, 100 mg, tmax (median)): 1 h
- AUC(0-inf) (clinical; po, 200 mg): 1830 ng·h/mL
- AUC(0-t) (clinical; po, 200 mg, AUClast): 1810 ng·h/mL
- Cmax (clinical; po, 200 mg): 926 ng/mL
- half-life (clinical; po, 200 mg, t1/2): 1.02 h
- Tmax (clinical; po, 200 mg, tmax (median)): 1 h
- AUC(0-inf) (clinical; po, 400 mg): 4010 ng·h/mL
- AUC(0-t) (clinical; po, 400 mg, AUClast): 4000 ng·h/mL
- Cmax (clinical; po, 400 mg): 1850 ng/mL
- half-life (clinical; po, 400 mg, t1/2): 1.03 h
- Tmax (clinical; po, 400 mg, tmax (median)): 1 h
- AUC(0-inf) (clinical; po, 600 mg): 6130 ng·h/mL
- AUC(0-t) (clinical; po, 600 mg, AUClast): 6120 ng·h/mL
- Cmax (clinical; po, 600 mg): 2720 ng/mL
- half-life (clinical; po, 600 mg, t1/2): 1.06 h
- Tmax (clinical; po, 600 mg, tmax (median)): 1 h
- AUC(0-inf) (clinical; po, 800 mg): 8740 ng·h/mL
- AUC(0-t) (clinical; po, 800 mg, AUClast): 8720 ng·h/mL
- Cmax (clinical; po, 800 mg): 3640 ng/mL
- half-life (clinical; po, 800 mg, t1/2): 1.29 h
- Tmax (clinical; po, 800 mg, tmax (median)): 1 h
- AUC(0-inf) (clinical; po, 1200 mg): 13800 ng·h/mL
- AUC(0-t) (clinical; po, 1200 mg, AUClast): 13800 ng·h/mL
- Cmax (clinical; po, 1200 mg): 4500 ng/mL
- half-life (clinical; po, 1200 mg, t1/2): 1.81 h
- Tmax (clinical; po, 1200 mg, tmax (median)): 1.75 h
- AUC(0-inf) (clinical; po, 1600 mg): 20700 ng·h/mL
- AUC(0-t) (clinical; po, 1600 mg, AUClast): 20700 ng·h/mL
- Cmax (clinical; po, 1600 mg): 6350 ng/mL
- half-life (clinical; po, 1600 mg, t1/2): 4.59 h
- Tmax (clinical; po, 1600 mg, tmax (median)): 1.5 h
- half-life (clinical; po, geometric mean terminal elimination half-lives (t1/2)): 0.91 to 1.29 h
- Tmax (clinical; po, median tmax): 1 h
- EC50 (SARS [1]): < 800 nM
- Slope (90% Confidence Interval) of power model, AUCinf [2]: 1.07 (1.02, 1.13)
- Slope (90% Confidence Interval) of power model, AUClast [2]: 1.09 (1.03, 1.15)
- Slope (90% Confidence Interval) of power model, Cmax [2]: 1.01 (0.927, 1.08)
- Slope of power model, AUCinf [2]: 1.10
- Slope of power model, AUClast [2]: 1.11
- Slope of power model, AUCt [2]: 1.08
- delay of median tmax, capsule vs solution formulation [2]: up to 0.75 hours
- dose excreted in urine as EIDD-1931 [2]: 0.854-3.61%
- geometric mean accumulation ratio based on AUCt [2]: 0.938-1.16
- geometric mean accumulation ratio based on Cmax [2]: 0.843-1.10
- geometric mean ratio of AUCinf, capsule (multiple-dose cohorts Day 1) vs solution (single-dose cohorts) [2]: 0.91-1.09
- geometric mean ratio of Cmax, capsule vs solution formulation [2]: 0.76-1.00
- RAcmax (accumulation ratio) ([2]; 50 mg): 0.843
- RAcmax (accumulation ratio) ([2]; 100 mg): 1.10
- FEAUC/inf (ratio of AUCinf fed:fasted) ([2]; 200 mg): 0.955
- FECmax (ratio of Cmax fed:fasted) ([2]; 200 mg): 0.644
- RAcmax (accumulation ratio) ([2]; 200 mg): 0.969
- mean Cmax lower in the fed state compared to the fasted state ([2]; 200 mg): approximately 36%
- RAcmax (accumulation ratio) ([2]; 300 mg): 0.861
- RAcmax (accumulation ratio) ([2]; 400 mg): 0.962
- RAcmax (accumulation ratio) ([2]; 600 mg): 1.04
- RAcmax (accumulation ratio) ([2]; 800 mg): 1.09
- t1/2 ([2]; 800 mg): 7.08¶ h
- bioavailability [3]: low bioavailability
- AUC0−>t (Huh-7 cells): 449.2 pmol · h/M cells
- Cmax (Huh-7 cells): 29.0 pmol/M Cells
- AUC0−>t (Vero cells): 228.6 pmol · h/M cells
- Cmax (Vero cells): 13.5 pmol/M Cells
- EC50 (SARS-CoV2): 300 nM
- EC50 (HCoV): < 400 nM
- EC90 (SARS [4]): < 800 nM
- AUC0−>t (CEM cells): 5.8 pmol · h/M cells
- Cmax (CEM cells): 0.3 pmol/M Cells
